Measured values taken from patent US20130172414A1, “PHARMACEUTICAL COMPOSITION COMPRISING LEVOCARNITINE AND DOBESILATE” (TIANJIN NANKAI SHARE PHARMACEUTICAL SCIENCE & TECHNOLOGY …, priority 2010, published 2013).

Assays:
[1] = system: adenine-induced mice renal failure model; assay: Pharmacodynamic test, chronic renal failure model (Example 5); type: in vivo, SPF grade Kunming mice; conditions: for Water content of renal tissue / blood urea nitrogen (BUN) / body weight after 4 weeks / renal index / serum creatinine (Scr): 350 mg/kg once per day for 4 weeks, n=10; for values of Scr and BUN as compared with the renal failure group: 350 mg/kg, 4 weeks
Protocol: Based on intergroup consistency principle, SPF grade Kunming mice (with a body weight of about 20 to 22 g, half male and half female) were randomly divided into 5 groups (n=10) with one of them as the control group. Except for control group, 300 mg/kg (20 ml/kg·d) of adenine was administrated given to mice once per day for successive 3 days by gavage, thereby to obtain adenine-induced mice renal failure model as described in the references (see for example Pingdong Zheng et. al, “The establishment of chronic renal failure animal model with adenine, Chinese Journal of Nephrology, 1989, 5(4): 342-344; Deyu Guo et. al., “The establishment of mice model with chronic renal insufficiency”, CHINESE JOURNAL OF LABORATORY ANIMAL SCIENCE, 2001, 11(3): 142-145; and Shuling Sun et. al, “The traditional Chinese medicinal intervention and pathological observations in mice chronic renal failure model”, ZHEJIANG JOURNAL OF INTEGRATED TRADITIONAL CHINESE AND WESTERN MEDICINE, 2002, 12(4): 221-222).
Thereafter, except for the control group, based on intergroup consistency principle, the remaining 4 groups were redivided randomly into 4 groups, renal failure group, levocarnitine (350 mg/kg) group, calcium dobesilate (350 mg/kg) group, as well as levocarnitine and calcium dobesilate group (350 mg/kg) (wherein the ratio of levocamitine and calcium dobesilate is 1:1). Except for the renal failure group, mice of each group were administrated at the given dosage once per day for successive 4 weeks. Then the data for the mice of each group such as body weight, blood urea nitrogen (BUN), serum creatinine (Scr), renal index and water content of renal tissue were determined.

mice = assay: Mice acute toxicity test (Example 7); conditions: mice acute toxicity
Description: (§1) Toxicity Test According to the methods described in literatures (“Guiding principles for acute toxicity test of a chemical drug”, No. [H]GPT1-1, CENTER FOR DRUG EVALUATION, SFDA; Bojun Yuan et. al., “The Preclinical Safety Evaluation and Practice of New Drug”, Military Medical Science Press, 1997: 23-36[…] Bojun Yuan et. al., “Methods and Techniques for Drug ToxicologicalTest”, Chemical Industry Press, 2008: 200-210), the preparation of levocamitine and calcium dobesilate obtained from example 2 was tested for mice acute toxicity.

[2] = system: rats in chronic renal failure model; conditions: cited from earlier work
[3] = Mice acute toxicity test (Example 7); conditions: mouse, in vivo
Description: as §1

ischemic/reperfused rat = conditions: cited from earlier work

Row | Structure (SMILES) | Water content of renal tissue [1] [%] | blood urea nitrogen (BUN) [1] [mmol/L] | body weight after 4 weeks [1] [g] | renal index [1] | serum creatinine (Scr) [1] [µmol/L] | values of Scr and BUN as compared with the renal failure group [1] | LD50 (mice) [mg/kg] | content of thromboxane Az in the homogenate of renal cortex [2] | level of Scr and BUN [2] | LD50 [3] [mg/kg] | content of malonaldehyde (MDA) in renal tissue (ischemic/reperfused rat) | content of reduced glutathione (GSH) (ischemic/reperfused rat) | serum creatinine (Scr) and blood urea nitrogen (BUN) (ischemic/reperfused rat)
1 | O=S(=O)([O-])c1cc(O)ccc1O.O=S(=O)([O-])c1cc(O)ccc1O.[Ca+2] [Calcium dobesilate, calcium dobesilate] | 75.9 ± 1.8 | 11.8 ± 7.0 | 31.6 ± 4.6 | 7.2 ± 0.7 | 10.0 ± 9.2 | decreased | 10600 | reduce notably | decreasing | – | – | – | –
2 | C[N+](C)(C)C[C@H](O)CC(=O)[O-] [Levocarnitine, (R)-3-carboxy-2-hydroxy-N,N,N-trimethyl-1-propanaminium hydroxide] | 76.0 ± 2.0 | 9.7 ± 5.8 | 32.3 ± 5.3 | 7.0 ± 1.3 | 21.6 ± 11.8 | decreased | – | – | – | 19200 | reduce | increase | can reduce
